Like-named read-outs stand apart in the source and are kept apart here.

Assay [1] deals with apoptotic proteins in A549 cells. Kind of assay: Apoptosis antibody array. The assay is classed as cell-based, human. As to conditions: 50 μM, 6 h.
Assay [2] has as its system BT20 (estrogen receptor-negative human breast adenocarcinoma) cells. Kind of assay: Cell proliferation assay (AlamarBlue), BT20. Type of assay: cell-based. The note with it: for IC50: BT20, 48 h, AlamarBlue; for Selectivity: BT20 versus normal HMEC cells. On the procedure:
(§1) Cell culture. Four human cancer cell lines including A549 (lung carcinoma), BT20 (estrogen receptor-negative human breast adenocarcinoma), MCF-7 (estrogen receptor-positive human breast adenocarcinoma) and U2OS (human osteosarcoma) were purchased from American Type Culture Collection (ATCC). An A549 cell line that stably expresses Green Fluorescent Protein (GFP) was purchased from Cell BioLabs Inc. (San Diego, Calif., USA). A549, A549-GFP and BT20 cells were cultured in RPMI 1640 media (Sigma-Aldrich, St. Louis, Mo., USA), MCF7 cells were cultured in DMEM medium (ATCC, Manassas, Va., USA), and U20S cells were cultured in McCoy's 5A medium (ATCC, Manassas, Va., USA). As a control, HMEC cells (primary human mammary breast epithelial cells) were purchased from ATCC and cultured in McCoy's 5A medium. All medium contained 10% FBS (Sigma-Aldrich, St. Louis, Mo., USA) and 1% streptomycin and penicillin (Sigma-Aldrich, St. Louis, Mo., USA). These cells were incubated in a humid environment with 5% CO2 at 37° C.
(§2) Cell proliferation assay. The resazurin reduction reagent AlamarBlue (Invitrogen, Frederick, Md., USA) was used to evaluate the cytotoxicity of the compounds. Cells were plated at a density of 5×10^3 cells per well in 96-well microplates with 100 μl culture medium, and were allowed to attach for 16 h prior to treatment. Next, all the medium was replaced with medium containing the cis- or trans-suffruticosol D compounds at seven different concentrations: 320, 100, 32, 10, 3.2, 1.0, and 0.32 μM. The cells were placed in an incubator for 48 h at 37° C. Cells that were treated with medium-containing vehicle (1% DMSO) only serve as negative control. Subsequently, AlamarBlue solution was added to the medium and the cells were incubated in the CO2 incubator for 1 h. The fluorescent intensity change of the dye was measured at Ex 555 nm and Em 590 nm using a plate reader (Molecular Devices, Sunnyvale, Calif., USA). The cytotoxicity was examined by determining by IC50, the dose that inhibited 50% of cell growth, using GraphPad Prism software (GraphPad Software, La Jolla, Calif., USA).
(§3) Table 1. IC50 values of cis- and trans-suffruticosol D in selected cancer and normal cell lines. Cells were treated with various concentrations of cis- or trans-suffruticosol D for 48 h, and the viability of cells was evaluated with AlamarBlue dye.
(In general: Alamar Blue is a resazurin reagent that responds to reducing activity.)

Assay [3] deals with U2OS (human osteosarcoma) cells. Put plainly: Cell proliferation assay (AlamarBlue), U2OS. The note with it: for Selectivity: U2OS versus normal HMEC cells; for IC50: U2OS, 48 h, AlamarBlue. The assay is classed as cell-based. On the procedure: as §1, §2, §3
Assay [4] concerns HMEC cells (primary human mammary breast epithelial cells). Kind of assay: Cell proliferation assay (AlamarBlue), normal HMEC. The assay is classed as cell-based. The note with it: 48 h. On the procedure:
as §1, §2, §3

For assay [5], the system named is A549 (lung carcinoma) cells. Kind of assay: Cell proliferation assay (AlamarBlue), A549. Type of assay: cell-based, human. The note with it: for IC50: A549, 48 h, AlamarBlue; for Selectivity: A549 versus normal HMEC cells. On the procedure: as §1, §2, §3
Assay [6] relates to A549 cells. Kind of assay: Multi-parameter cytotoxicity assay (HCS). The note with it: 24 h; for mitochondrial membrane potential: all tested concentrations. Type of assay: cell-based, human. On the procedure: FIGS. 5A-D depict multi-parameter analysis of cytotoxicity induced by cis- and trans-suffruticosol D in A549 cells. A549 cells were treated with various concentrations of cis- or trans-suffruticosol D for 24 h, then stained with three dyes simultaneously (Hoechst, cell permeability dye, and mitochondrial membrane potential dye). Cells treated with vehicle only served as a negative control and cells treated with 10 μM valinomycin served as a positive control.
Multi-parameter cytotoxicity assay. HCS analysis was used to measure nuclear morphology, cell membrane permeability, and mitochondrial membrane potential changes, the three parameters associated with cytotoxicity. A549 cells were treated with different concentrations of cis- or trans-suffruticosol D for 24 h. The cells were then fixed and stained with a warm solution containing Hoechst dye, Membrane Permeability Dye, and Mitochondrial membrane Potential Dye (Thermo Scientific, Waltham, Mass., USA). Cells were imaged using an Arrayscan VTI HCS reader (Thermo Scientific, Waltham, Mass., USA). Data on nuclear size, cell permeability, and mitochondria membrane potential were collected and analyzed using vHCS Scan software.

Assay [7] relates to A549 (lung), BT20 (breast), MCF7 (breast) and U2OS (osteosarcoma) cancer cell lines. Kind of assay: Cell proliferation assay, range over the four cancer cell lines. As to conditions: for IC50: A549, BT20, MCF7, U2OS, 48 h, read-out: IC50 values in all four cancer cell lines (range); for selectivity (range over cancer cell lines): cancer cell lines versus normal HMEC. The assay is classed as cell-based, human. On the procedure: as §1, §2

For assay [8], the system named is A549 cells. Kind of assay: Oxidative stress assay (ROS, DHE, HCS reader). Type of assay: cell-based, human. The note with it: 24 h. On the procedure:
FIGS. 3A and 3B depict induction of oxidative stress by cis- and trans-suffruticosol D in A549 cells. A549 cells were treated with various concentrations of cis- or trans-suffruticosol D for 24 h, then stained with Hoechst and dihydroethidium (DHE) dye. Cells treated with Doxorubicin served as a positive control, and cells treated with vehicle only served as a negative control. The reactive oxygen species (ROS) levels were measured by the fluorescent intensity of DHE that was converted to ethidium bromide.
Oxidative stress assay. The Hitkit oxidative stress kit (Thermo Scientific, Waltham, Mass., USA) was used to determine the generation of reactive oxygen species (ROS) according to the manufacturer's instructions. Briefly, A549 cells were treated with cis- or trans-suffruticosol D for 24 h, fixed with warm 37% formaldehyde and stained with Hoechst and dihydroethidium (DHE) dye for 30 min at 37° C. with 5% CO2. Doxorubicin (DOX) at 1 μM concentration was used as a positive control and cells treated with vehicle only were used as negative control. ROS generation in the nuclei was indicated by the production of the fluorescent ethidium, and assessed by measuring the nuclear fluorescent intensity using an ArrayScan VTI High-content screening (HCS) reader (Thermo Scientific, Waltham, Mass., USA). Images were acquired and data was analyzed by vHCS Scan software.

As to `Oc1ccc(C=Cc2c3c(cc4c2[C@@H](c2cc(O)cc(O)c2)[C@H](c2ccc(O)cc2)O4)O[C@H](c2ccc(O)cc2)[C@@H]3c2cc(O)cc(O)c2)cc1` [cis-suffruticosol D], in assay [1], the “BH3 interacting-domain death agonist (BID) expression” value was “up-regulated”. Further, the “cyclin-dependent kinase inhibitor 1B (p27Kip1) expression” value in assay [1] is on record as “up-regulated”. Further, the “death receptor 6 (DR6) expression” value in assay [1] is listed as “up-regulated”. Also, the IC50 (commonly the concentration at which inhibition is half-maximal) in assay [2] (listed as cis-SD) is 13.4 ± 2.5 µM; in assay [3] (listed as cis-SD), 24.6 ± 4.4 µM; in assay [4], 146 µM; in assay [4] (listed as cis-SD), 269.5 ± 2.2 µM; in assay [5] (listed as cis-SD), 17.1 ± 1 µM; in assay [7], 13.4 to 46.8 µM. Moreover, the Selectivity in assay [2] (listed as cis-SD) amounted to 20; in assay [3] (listed as cis-SD), 11; in assay [5] (listed as cis-SD), 15.8. In the assay with A549 cells [6], the mitochondrial membrane potential result is on record as “significant decrease”. Also, the cell membrane permeability entry in the assay with A549 cells [6] (various concentrations) is “no significant change”. Moreover, the nuclear size result in the assay on A549 cells [6] (various concentrations) is given as “no significant change”. For the same molecule, the “selectivity (range over cancer cell lines)” value in assay [7] was 9.2-14.7 fold. Besides, the “increase of ROS levels” value with A549 cells [8] (10 μM) was determined as 32.8%; with A549 cells [8] (32 μM), 55.6%; with A549 cells [8] (100 μM) it was 73.1%.
Regarding `Oc1ccc(/C=C/c2c3c(cc4c2[C@@H](c2cc(O)cc(O)c2)[C@H](c2ccc(O)cc2)O4)O[C@H](c2ccc(O)cc2)[C@@H]3c2cc(O)cc(O)c2)cc1` [trans-suffruticosol D], the “BH3 interacting-domain death agonist (BID) expression” value in assay [1] is recorded as “up-regulated”. The “cyclin-dependent kinase inhibitor 1B (p27Kip1) expression” value in assay [1] was “up-regulated”. In assay [1], the “death receptor 6 (DR6) expression” value is given as “up-regulated”. The Selectivity is 14.8 in assay [2] (listed as trans-SD), 12.9 in assay [3] (listed as trans-SD) and 12.3 in assay [5] (listed as trans-SD). Besides, the IC50 in assay [2] (Homo sapiens, BT-20, 48 h) is 9.9 ± 3.8 µM; in assay [3] (listed as trans-SD), 11.3 ± 2.3 µM; in assay [4] (listed as trans-SD), 146 ± 2.7 µM; in assay [4] (Homo sapiens, HMEC) it was 270 µM; in assay [5] (Homo sapiens), 11.9 ± 1.2 µM; in assay [7], 9.93 to 20.8 µM. Besides, in assay [7] (Homo sapiens), the IC50 is 9.93 to 15.8 µM. Besides, the cell membrane permeability entry in the assay with A549 cells [6] (100 μM) was “increased cell membrane permeability”. Also, the nuclear size entry with A549 cells [6] (100 μM) is “nuclei shrinkage”. Further, in the assay on A549 cells [6], the mitochondrial membrane potential result is listed as “significant decrease”. Also, the “selectivity (range over cancer cell lines)” value in assay [7] was 5.8-20 fold. Also, the “increase of ROS levels” value turned out to be 32.8% with A549 cells [8] (10 μM), 34.6% in the assay on A549 cells [8] (32 μM) and 87.2% in the assay with A549 cells [8] (100 μM).

For the origin of these results see patent publication US20180221329A1, “CIS- AND TRANS-SUFFRUTICOSOL D AS THERAPEUTIC AGENTS” (MIDDLE TENNESSEE STATE UNIVERSITY, priority 2015, published 2018).
